Results published in US20180311364A1, “Protease Triggered Release Of Molecules From Hydrogels” (The Trustees of the University of Pennsylvania, priority 2010, published 2018).

Assay: Triggered release of ilomastat from HA-aldehyde / HA-peptide-hydrazide hydrogel
Format: physicochemical
Experimental: Ilomastat was ground into a fine powder of uniform microparticles. These microparticles were suspended in the dissolved HA-aldehyde and HA-peptide-hydrazide solutions at 10 μg per 100 μL of polymer solution. At this concentration ilomastat remains a solid particle within the polymer solution. HA-aldehyde and HA-peptide-hydrazide polymers were mixed 1:1 aldehdye:hydrazide to induce crosslinking into a solid gel. The gels were incubated in phosphate buffered saline at 37° C. After 14 days less than 10% of the ilomastat was released from the gels due to hydrophobic interactions of the ilomastat in the microparticles. The gels were then exposed to collagenase 200 U/mL and the gels degraded.

CNC(=O)[C@H](Cc1c[nH]c2ccccc12)NC(=O)[C@@H](CC(=O)NO)CC(C)C [ilomastat, Ilomastat]
ilomastat release after gel degradation (HPLC) (gels exposed to collagenase 200 U/mL after 14 days in PBS, gels degraded): solubilized in the larger volume of the buffer
ilomastat released from the gels (gels incubated in phosphate buffered saline at 37° C., after 14 days, ilomastat microparticles 10 μg per 100 μL polymer solution): less than 10%
